Experimental data taken from patent US8491897B2, “Treatment of neuropathic pain using anti-thrombospondin antibodies” (The Board of Trustees of the Leland Stanford Junior …, priority 2007, dated 2013).
Entries after “also recorded” stand apart in the source; their conditions may differ.

Tests used:
RGCs [1] = assay: Inhibition of TSP-, astrocyte/ACM- or Hevin-induced synapse formation in RGC cultures; assay type: cell-based, rat
Protocol: RGCs were purified by sequential immunopanning to greater than 99.5% purity from P5 Sprague-Dawley rats (Simonsen Labs, Gilroy, Calif.), as previously described (Barres et. al. (1988) Neuron 9, 791). Approximately 30,000 RGCs were cultured per well in 24-well plates (Falcon) on glass (Assistant) or Aclar 22C (Allied Signal) coverslips coated with poly-D-lysine (10 μg/ml) followed by laminin (2 μg/ml). RGCs were cultured in 600 μl of serum-free medium, modified from Bottenstein and Sato (1979), containing Neurobasal (Gibco), bovine serum albumin, selenium, putrescine, triiodo-thyronine, transferrin, progesterone, pyruvate (1 mM), glutamine (2 mM), CNTF (10 ng/ml), BDNF (50 ng/ml), insulin (5 μg/ml), and forskolin (10 μM). Recombinant human BDNF and CNTF were generously provided by Regeneron Pharmaceuticals.
Purified human platelet TSP1 was from either Sigma or Haematologic Technologies with similar results. Recombinant TSP2 was purified from serum-free medium conditioned by baculovirus-infected insect cells expressing mouse TSP2. Since purified TSP1 is readily available, we used this as the source of TSP in our experiments unless otherwise stated TSPs were used at a concentration of 5 μg/ml unless otherwise specified. RCGs were cultured for 4 days to allow robust process outgrowth and then cultured with TSPs for an additional 6 days. All other reagents were obtained from Sigma.
For preparation of ACM, confluent cultures of astrocytes in 10 cm dishes were washed 3× in PBS and fed with 10 mls RGC medium (without CNTF, BDNF or forskolin). ACM was harvested after 4-6 days of conditioning, filtered through a 0.2 μm syringe filter and concentrated 10× through a 5 KD molecular weight cut-off centrifuge concentrator (Millipore), unless otherwise indicated. ACM was used at a final concentration of 5× unless otherwise indicated. RCGs were cultured for 4 days to allow robust process outgrowth and then cultured with ACM or an astrocyte-feeding layer for an additional 6 days.
For synapse quantification, cultures were fixed for 7 min in 4% paraformaldehyde (PFA), washed 3× in phosphate buffered saline (PBS) and blocked in 100 μL of blocking buffer (50% Antibody Buffer (0.5% bovine serum albumin, 0.5% Triton X-100, 30 mM NaPO4, 750 mM NaCl, 5% normal goat serum, and 0.4% NaN3, pH 7.4), 50% goat serum (NGS), 0.1% Triton-X) for 30 min. After blocking, cover slips were washed 3× in PBS and 100 μL of primary antibody solution was added to each cover slip, consisting of rabbit anti-synaptotagmin (cytosolic domain, Synaptic Systems) and mouse anti-PSD-95 (6G6-1C9 clone, Affinity Bio Reagents) diluted 1:500 in antibody buffer. Coverslips were incubated overnight at 4° C., washed 3× in PBS, and incubated with 100 μL of secondary antibody solution containing Alexa-594 conjugated goat anti-rabbit and Alexa-488 conjugated goat anti-mouse (Molecular Probes) diluted 1:1000 in antibody buffer. Following incubation for 2 h at room temperature, coverslips were washed five times in PBS and mounted in Vectashield mounting medium with DAPI (Vector Laboratories Inc) on glass slides (VWR Scientific). For presynaptic activity assay, rabbit synaptotagmin antiserum was generated by immunization with a peptide corresponding to the N-terminal luminal portion of synaptotagmin. This serum was added at 1:500 to live cultures and incubated for 6 hours. Cells were then washed 3× in DPSB, fixed and stained as above, except for the omission of synaptotagmin antibody from the primary antibody solution.
Mounted coverslips were imaged using Nikon Diaphot and Eclipse epifluorescence microscopes (Nikon). Healthy cells that were at least 2 cell diameters from their nearest neighbor were identified and selected at random by eye using DAPI fluorescence. 8-bit digital images of the fluorescence emission at both 594 nm and 488 nm were recorded for each selected cell using a cooled monochrome CCD camera and SPOT image capture software (Diagnostic Instruments, Inc). […]

[2] = Weight gain and general health of injected pups; assay type: in vivo, mice; conditions: 400 mg/kg daily or 200 mg/kg three times a day i.p., vs saline
Protocol: In three independent experiments, two litters of wild type mice (n=3×12, FVB background) were given daily intraperitoneal injections of either a single dose of 400 mg/kg of GBP (Sigma-Aldrich) or a matching volume of saline solution (PBS). In one experiment the mice were injected with 200 mg/kg GBP (n=6) three times a day and the controls received the same volume of saline solution (n=6). […] Samples were blinded during analysis of the barrel cortex plasticity.

naive rats = assay: TSP4-induced behavioral hypersensitivity in naive rats (paw withdrawal threshold, von Frey); assay type: in vivo, rat; conditions: 1 mg/rat bolus i.t., three days after TSP4 (45 ug/rat)
RGCs [3] = tested on: RGCs

NCC1(CC(=O)O)CCCCC1 [Gabapentin, 1-(aminomethyl)cyclohexaneacetic acid]
effect on SD2-induced synapse formation (RGCs [1]): completely inhibited synapse formation; also recorded: inhibited TSP induced synapse formation; also recorded: blocks TSPs synaptogenic effect; also recorded: blocks the synaptogenic activity of SD2 | effect on SD2-induced synapses (RGCs [1]): synapse formation was not affected; also recorded: does not decrease synapse numbers | effect on already formed synapses (synapse number) (RGCs [1]): did not decreased the synapse number | effect on synapse formation induced by Hevin (RGCs [1]): does not inhibit the synapse formation; also recorded: did not affect | effect on synaptogenic effect of TSP2 EGF-like domains (RGCs [1]): diminished its synaptogenic effect | effect on TSP and astrocyte-induced synapse formation (RGCs [1]; 32 μM): strongly inhibited both TSP and astrocyte-induced synapse formation | effect on synapse formation induced by TSP1 or TSP2 EGF-like domains (RGCs [1]; 32 μM): blocked the synaptogenic effect; also recorded: reduces the number of synapses formed by RGCs down to background levels | effect on synaptogenic effect of astrocyte conditioned media (ACM) (RGCs [1]; 32 μM): diminished the synaptogenic effect of both rat and mouse ACM; also recorded: able to block all of ACMs synaptogenic activity | weight gain and general health [2]: showed no differences | effect on TSP4-induced behavioral hypersensitivity (naive rats): blocked the pain-inducing effects of TSP4 | toxicity to the RGCs (RGCs [3]): not toxic
